# Source: US7034035B2, “Fungicidal mono-, bi-, and tri-cycloheteroalkyl amides and their compositions, methods of use and preparation” (priority 1999, dated 2006)
# Read-outs that look alike come from different tables or passages of the source.
# What was measured:
# [1] = system: Leptosphaeria nodorum—LEPTNO; assay: Glume Blotch of Wheat, in vivo whole plant, 24 Hour Protectant; conditions: for pest or weed control at 100 ppm: Leptosphaeria, 24 h, read-out: LEPTNO in vivo 1 Day Protectant
# Septoria tritici—SEPTTR = assay: Leaf Blotch of Wheat, in vivo whole plant, 24 Hour Protectant; conditions: inoculated after 24 hours; for pest or weed control at 100 ppm: Zymoseptoria tritici, read-out: SEPTTR in vivo 1 Day Protectant
# Erysiphe graminis—ERYSGT = assay: Powdery Mildew of Wheat, in vivo whole plant, 24 Hour Protectant; conditions: for ERYSGT in vivo 1 Day Protectant: inoculated after 24 hours; for pest or weed control at 100 ppm: Erysiphe, in Triticum aestivum, 24 h, read-out: ERYSGT in vivo 1 Day Protectant
# [2] = system: Puccinia recondita—PUCCRT; assay: Brown Rust of Wheat, in vivo whole plant, 24 Hour Protectant; conditions: inoculated after 24 hours; for pest or weed control at 100 ppm: Puccinia, read-out: PUCCRT in vivo 1 Day Protectant
# [3] = system: Phytophthora infestans—PHYTIN; assay: whole plant or invertebrate; type: in vivo; conditions: for pest or weed control at 100 ppm: Phytophthora, in Solanum lycopersicum, 24 h, read-out: PHYTIN in vivo 1 Day Protectant; for PHYTIN in vivo 1 Day Protectant: tomato plants sprayed at 100 ppm, inoculated after 24 hours, control vs untreated plants
# [4] = system: Mycosphaerella graminicola (Septoria tritici—SEPTTR); assay: Inhibition of in vitro fungal growth, SEPTTR; type: cell-based
# Ustilago maydis (USTIMA) = assay: microbe, parasite or virus in culture; type: cell-based
# [5] = system: Stagonospora nodorum (Leptosphaeria nodorum—LEPTNO); assay: Inhibition of in vitro fungal growth, LEPTNO; type: cell-based
# [6] = system: Rhizoctonia solani (RHIZSO); assay: microbe, parasite or virus in culture; type: cell-based
# [7] = wheat plants sprayed at 100 ppm, control vs untreated plants
# [8] = wheat (cultivar Yuma), sprayed at 100 ppm, inoculated after 24 hours, control of fungal infection vs untreated plants
# [9] = wheat (cultivar Yuma), sprayed at 100 ppm, control of fungal infection vs untreated plants
# [10] = wheat plants sprayed at 100 ppm, inoculated after 24 hours, control vs untreated plants
structure (smiles),measurement,setting,value
CCCC[C@H]1C(=O)O[C@H](C)C(NC(=O)c2cccc(NC(=O)c3nccc(OC)c3O)c2O)C(=O)O[C@@H](C)[C@@H]1OC(=O)CC(C)C (stereo partly drawn) [Compound 473],pest or weed control at 100 ppm,[1],75 to 100%
same,SEPTTR in vivo 1 Day Protectant,Septoria tritici—SEPTTR; [7],+ (25-74% control of fungal infection)
same,ERYSGT in vivo 1 Day Protectant,Erysiphe graminis—ERYSGT; [7],− (<25% control of fungal infection)
same,PUCCRT in vivo 1 Day Protectant,[2]; [7],+ (25-74% control of fungal infection)
CCC(C)C(=O)O[C@H]1[C@H](C)OC(=O)[C@@H](NC(=O)c2nccc(OC)c2O)COC(=O)[C@@H]1Cc1ccccc1 (stereo partly drawn) [Compound 389],pest or weed control at 100 ppm,[1]; [8],75 to 100%
same,pest or weed control at 100 ppm,Septoria tritici—SEPTTR; [9],25 to 74%
same,pest or weed control at 100 ppm,[3],< 25%
same,pest or weed control at 100 ppm,Erysiphe graminis—ERYSGT,< 25%
same,pest or weed control at 100 ppm,[2]; [9],25 to 74%
COc1ccnc(C(=O)N[C@H]2COC(=O)[C@H](CC3CCCC3)[C@@H](OC(=O)C(C)C)[C@H](C)OC2=O)c1O [Compound 402],pest or weed control at 100 ppm,[1]; [8],75 to 100%
same,pest or weed control at 100 ppm,Erysiphe graminis—ERYSGT,75 to 100%
COc1ccnc(C(=O)N[C@H]2COC(=O)[C@H](Cc3ccccc3)[C@@H](OC(=O)Cc3ccccc3)[C@H](C)OC2=O)c1O [Compound 395],LEPTNO in vivo 1 Day Protectant,[1]; [8],+ (25-74% control of fungal infection)
same,SEPTTR in vivo 1 Day Protectant,Septoria tritici—SEPTTR; [9],+ (25-74% control of fungal infection)
same,ERYSGT in vivo 1 Day Protectant,"Erysiphe graminis—ERYSGT; wheat (cultivar Monon), sprayed at 100 ppm, control of fungal infection vs untreated plants",− (<25% control of fungal infection)
same,PUCCRT in vivo 1 Day Protectant,[2]; [9],+ (25-74% control of fungal infection)
COc1ccnc(C(=O)N[C@@H]2C[C@@H](O[Si](C)(C)C(C)(C)C)O[C@@H](C)[C@@H]2OC)c1O [Compound 326],SEPTTR in vitro Growth Inhibition,[4],− (key: +: at least 80% growth inhibition; −: less than 80% growth inhibition)
same,pest or weed control at 100 ppm,Septoria tritici—SEPTTR; [9],75 to 100%
same,USTIMA in vitro Growth Inhibition,Ustilago maydis (USTIMA),− (key: +: at least 80% growth inhibition; −: less than 80% growth inhibition)
same,LEPTNO in vitro Growth Inhibition,[5],− (key: +: at least 80% growth inhibition; −: less than 80% growth inhibition)
same,RHIZSO in vitro Growth Inhibition,[6],− (key: +: at least 80% growth inhibition; −: less than 80% growth inhibition)
COc1ccnc(C(=O)N[C@H]2COC(=O)[C@H](Cc3ccccc3)[C@@H](OC(=O)CC(C)C)[C@H](C)OC2=O)c1O [Compound 390],pest or weed control at 100 ppm,[1]; [8],75 to 100%
same,pest or weed control at 100 ppm,Septoria tritici—SEPTTR; [9],25 to 74%
same,pest or weed control at 100 ppm,[3],< 25%
same,pest or weed control at 100 ppm,Erysiphe graminis—ERYSGT,< 25%
same,pest or weed control at 100 ppm,[2]; [9],25 to 74%
COc1ccnc(C(=O)N[C@H]2COC(=O)[C@H](Cc3ccccc3)[C@@H](OCC(C)C)[C@H](C)OC2=O)c1O [Compound 384],pest or weed control at 100 ppm,[1]; [8],75 to 100%
same,pest or weed control at 100 ppm,Erysiphe graminis—ERYSGT,75 to 100%
O=C(Nc1cccc(Oc2cccc(C(F)(F)F)c2)c1)c1nc(Br)ccc1O [Compound 496],LEPTNO in vivo 1 Day Protectant,[1]; [10],− (<25% control of fungal infection)
same,SEPTTR in vivo 1 Day Protectant,Septoria tritici—SEPTTR; [7],+ (25-74% control of fungal infection)
same,PHYTIN in vivo 1 Day Protectant,[3],− (<25% control of fungal infection)
same,pest or weed control at 100 ppm,Erysiphe graminis—ERYSGT,< 25%
same,PUCCRT in vivo 1 Day Protectant,[2]; [7],+ (25-74% control of fungal infection)
O=C(Nc1cccc(Oc2cccc(C(F)(F)F)c2)c1)c1nc(Br)ccc1O [Compound 497],LEPTNO in vivo 1 Day Protectant,[1]; [10],+ (25-74% control of fungal infection)
same,SEPTTR in vivo 1 Day Protectant,Septoria tritici—SEPTTR; [7],+ (25-74% control of fungal infection)
same,PHYTIN in vivo 1 Day Protectant,[3],− (<25% control of fungal infection)
same,ERYSGT in vivo 1 Day Protectant,Erysiphe graminis—ERYSGT; [7],− (<25% control of fungal infection)
same,PUCCRT in vivo 1 Day Protectant,[2]; [7],+ (25-74% control of fungal infection)
COc1ccnc(C(=O)NC(COC(=O)CCc2ccccc2)C(=O)OC(C)COC(=O)C(C)C)c1O (stereo not drawn) [Compound 359],pest or weed control at 100 ppm,Septoria tritici—SEPTTR; [9],75 to 100%
same,pest or weed control at 100 ppm,[2]; [9],75 to 100%
